Results from patent US20230203130A1, “A PEPTIDE COCKTAIL” (Hubro Therapeutics AS, priority 2020, published 2023).
Entries after “also recorded” stand apart in the source; their conditions may differ. Where two headings read alike, the source gives them in different places. Where no end group is shown, it is not given here.

Columns and labels:
[1] = test system: T cells; conditions: cited from earlier work; for immunogenicity / T-cell responses / patients recognizing the peptide: Saeterdal et al., PNAS 2001; for immunogenicity / T-cell responses: tumour infiltrating Th cells, MSI+ tumours
[2] = test system: T-cells from PMBCs of healthy donors; experiment: T-cell proliferation after stimulation of PMBCs with mixture fsp10, fsp11 and fsp13 (Example 8); assay type: cell-based, human; conditions: FIG. 19
Protocol: Using a similar procedure to that used in Examples 4 and 7 above, PMBCs from four healthy donors were stimulated in vitro with a peptide mixture containing equimolar amounts (10 uM) of fsp10 (SEQ ID NO: 28), fsp11 (SEQ ID NO: 29) and fsp13 (SEQ ID NO: 31).
After one round of stimulation (14 days), T-cells were harvested and tested for recognition of the peptide mixture, using single peptide concentrations of 10 μM. T-cell proliferation was measured as counts per minute (CPM) after uptake of ^3H-thymidine in a standard T cell proliferation assay.
The PMBCs from the four healthy donors underwent a second round of in vitro stimulation, and T-cells were again harvested and tested for proliferation against the peptide mixture and the individual peptides. […] While it has, in the past, been considered that a SI value of greater than 2 is the criterion for indicating a T-cell response in a T-cell proliferation assay, this is only the case in subjects who have been vaccinated prior to the T-cell proliferation assay. Where a healthy subject has not been vaccinated before the T-cell proliferation assay (as in the present T-cell proliferation assay), it is not expected that a SI value of 2 or greater will be achieved. Therefore, in non-vaccinated, healthy subjects, an increase in the SI value above 1 is indicative of a T-cell response.

[3] = test system: T-cells from PBMC bulk cultures of healthy donors; experiment: Peptide-specific T-cell proliferation after stimulation of PBMC with cocktail fsp2+fsp8+fsp9 (Example 7); assay type: cell-based, human; conditions: FIGS. 16-18; for T-cell response to the peptide alone: after only one round of stimulation with the peptide mixture; for T-cell response: three donors
Protocol: PBMCs isolated from buffy coats from four healthy donors (obtained from a blood bank) were suspended in complete CellGro DC medium to 15*10^6 cells/ml and diluted to 4*10^6 cells/ml (Table 14).
On day 1, 1 ml of PBMC suspension (4×10^6 cells/ml) from each donor was transferred to wells of 24-well plates (4*10^6 cells per well) and 60 μl of the peptide cocktail (fsp2+fsp8+fsp9) stock solution (166.67 μM/each peptide) was added to each well. The plates were incubated in a cell incubator for 14 days. IL-2 and IL-7 was added on day 3 (0.50 ml DC medium containing 60 U/ml IL-2 and 15 ng/ml IL-7). The cells were inspected daily and DC medium with cytokines (IL-2, IL7) was refreshed according to in house laboratory routines.
The in vitro stimulation of bulk cultures was repeated a further two times (i.e. a total of three stimulations) using PBMCs harvested after the preceding round of in vitro stimulation. Peptide specific T-cell proliferation was tested on day 14, after each round of stimulation, such that T-cell proliferation was tested on days 14, 28 and 42 after the first round of stimulation.
The cells from the bulk cultures were harvested (5 minutes at 300×g centrifugation) and re-suspended in DC medium (5 ml). An aliquot of the 5 ml resuspension was diluted 5 times and the T-cells counted in order to calculate the volume required to provide 5×10^4 cells per well for the proliferation assay. T-cells from each donor were transferred (triplicates) to wells of 96-well plates (5×10^4 cells per well) together with autologous, irradiated (30 Gy for 8 minutes) PBMCs (5×10^4 cells per well) and test peptide(s) (final concentration 10 μM/each peptide). Negative controls were wells without test peptide(s) and positive controls were wells with SEC-3 (0.1 μg/ml) without test peptide(s). The cells (plates) were incubated for 48 hours (37° C./5% CO2). After 48 hours, 20 μL of 3H-Thymidine (3.7×104 Bq) was added to the cells and incubation was continued for 17 hours. The cells were harvested (Unifilters using the Filtermate 196 Harvester) and dried on the filters for approx. 4.5 hours at 45° C. The cells were counted (CPM) by using the standard in-house laboratory protocol (TopCount Packard microplate scintillation beta counter and run programme).
Peptide-specific T-cell proliferation was measured after 14 days of stimulation of PBMC bulk cultures with a peptide cocktail containing fsp2, fsp8 and fsp9 (10 μM each peptide). Proliferation induced by each of the single peptides and the peptide cocktail was tested at a concentration of […] (each peptide).
Peptide-specific T-cell proliferation was measured after 14 days of re-stimulation of PBMC with a peptide cocktail containing fsp2, fsp8 and fsp9 ([…] each peptide). T-cell proliferation induced by each of the single peptides and the peptide cocktail was tested. The single peptides were tested at a concentration of 10 μM. The peptide cocktail was tested using two different amounts of each peptide in the cocktail, namely, a peptide cocktail containing […] each peptide and a peptide cocktail containing 3.33 μM each peptide.
Peptide-specific T-cell proliferation was measured after 14 days of a further re-stimulation of PBMC with a peptide cocktail containing fsp2, fsp8 and fsp9 ([…] each peptide). T-cell proliferation induced by each of the single peptides and the peptide cocktail was tested. The single peptides were tested at a concentration of 10 μM. […]

[4] = test system: T cells (PBMC) from healthy donors; experiment: T-cell proliferation (3H-thymidine, SI) after in vitro stimulation of PBMC with cocktail fsp2+fsp4 (Example 4); assay type: cell-based, human; set-up: T cell proliferation (stimulation index, SI): immunogenicity: dose or concentration left out as unconfirmed; conditions: for T cell proliferation (stimulation index, SI): immunogenicity: first and second round of in vitro stimulation with cocktail of fsp2 and fsp4, four healthy donors, FIGS. 10-12; for relative immunogenicity: FIGS. 10 and 11, compared with fsp3 and fsp4
Protocol: Fresh buffy coats from four healthy donors were obtained from a blood bank.
Peripheral blood mononuclear cells (PBMC) isolated from fresh buffy coats from four healthy donors were counted and suspended in DC medium to 15*10^6 cells/ml, and subsequently diluted with DC-medium to 4*10^6 cells/ml (Table 6).
Four 24-well plates were used for each donor, with 4*10^6 cells per well (each well has a volume of 1 ml).
Peptide cocktail: Solution of peptides fsp2+fsp4, containing […] of each peptide. 40 μl peptide solution was added to each well.
The plates were incubated in a cell incubator for 14 days (37° C., 5% CO2). IL-2 and IL-7 were added on day 3. The cells were inspected daily.
Test peptides: fsp2+fsp4 (SEQ ID NOs: 21 and 23), fsp1 (SEQ ID NO: 20), fsp2 (SEQ ID NO: 21), fsp3 (SEQ ID NO: 22), fsp4 (SEQ ID NO: 23), fsp5 (SEQ ID NO: 19).
Negative controls: T cells, T cells+APC (without addition of test peptides)
Cells and reagents were added to plate wells (in triplicate) as described in Tables 8 and 9 below. The total volume added to each well was 0.20 ml. • T cells (PBMC): 50 000 cells/well (0.25*10^6 cells/ml) • APC: Irradiated (30 Gy, 8 minutes) autologous feeder cells: 50 000 cells/well • (fspx): 0.2 nmol peptide/well (each peptide), concentration: […] peptide. (fsp was dissolved in DMSO before dilution to correct concentration)
The plates were incubated in a cell incubator for 48 hours (37° C., 5% CO2).
After incubation for 48 hours, 20 μl 3H-tThymidine solution (5 Ci/ml) was added to each well and the plates were incubated for approximately 17 hours (37° C., 5% CO2).
After 17 hours the cells were harvested (Unifilters) and dried on the filters at 45° C. until completely dry. After covering the bottom of the Unifilters with adhesive covers (delivered with the Unifilters) 25 μl micro scintillation liquid was added to each well, the plate was covered with TopSeal and 3H-Thymidine uptake was measured as counts per minute (CPM) using a microplate scintillation counter.
The T cell proliferation results after the first round of in vitro stimulation with the cocktail of fsp2 and fsp4 peptides are presented as stimulation index (SI) in FIG. 10. SI=mean CPM (triplicates) of (T cells+APC+test peptide(s)) divided by mean CPM (triplicates) of (T cells+APC). SI>1 indicates an increase in T-cell proliferation and SI 2 is a clear sign of immunogenicity.
PBMCs harvested after the first in vitro stimulation were re-stimulated in vitro according to the protocol set out above, with 2×10^6 cells per well. T-cell proliferation was tested according to the protocol set out above.

[5] = test system: T-cells from PMBCs from healthy donors; experiment: T-cell proliferation after induction of T-cells with fsp2 (Example 5); assay type: cell-based, human; conditions: one round of in vitro stimulation, FIG. 13
Protocol: A similar protocol to that set out in Example 4 was used to test the immunogenicity of fsp6 (SEQ ID NOs: 24) and fsp7 (SEQ ID NO: 123). Fsp2 (SEQ ID NO: 21; 10 μM) was used to induce T-cells from PMBCs isolated from fresh buffy coats from four healthy donors. At day 14 after induction, a T-cell proliferation assay was carried out as in Example 4, using fsp2 (SEQ ID NO: 21), fsp6 (SEQ ID NO: 24) and fsp7 (SEQ ID NO: 123) as test peptides. The T-cell proliferation results after one round of in vitro stimulation are presented as stimulation index (SI) in FIG. 13. […] It is also expected, in view of the results shown in FIGS. 11 and 12, that a peptide having the sequence of fsp6 (SEQ ID NO: […]) but having a C-to-G amino acid substitution corresponding to that in fsp2 is also immunogenic and is useful as a vaccine or treatment against cancer.

SLVRLSSCV (listed as Homo sapiens) [p523, prior art peptide of mutTGFβR2]
immunogenicity ([1]; EP1078000 FIG. 14, four rounds of stimulation of the T-cells): immunogenic | immunogenicity ([1]; Linnebacher et al., FIG. 1): not immunogenic

SCPLRDLQTLWPILALISMSSIWGTMFS (listed as Homo sapiens) [fsp11, peptide of −1a frameshifted SLC22A9]
T-cell response (proliferation, CPM) ([2]; donor 1, one round of in vitro stimulation (14 days), 10 μM): induced T-cell responses | induction of T-cells relative to mixture of fsp11 and fsp13 ([2]; donor 1, one round): greater induction of T-cells than the mixture of fsp11

KTILKKAGIGMCVKVSSIFFINKQK (listed as Homo sapiens) [fsp9, peptide of −1a frameshifted TAF1β]
T-cell response to the peptide alone [3]: induces a T-cell response | T-cell response [3]: able to induce a T-cell response

RNRIPAVLRTEGEPLHTPSVGMRET (listed as Homo sapiens) [fsp8, peptide of −1a frameshifted ASTE1]
T-cell response to the peptide alone [3]: induces a T-cell response | T-cell response [3]: able to induce a T-cell response

SSGVPVALMSAMTTSSSQKN (not fully specified) [fsp4, modified peptide of −1a frameshifted TGFβR2]
T cell proliferation (stimulation index, SI): immunogenicity [4]: immunogenic and can activate T-cells

fsp7: peptide of −1a frameshifted TGFβR2; same sequence as fsp2 but truncated at the N-terminus (VRLSSCVPVALMSA; listed as Homo sapiens)
relative immunogenicity [5]: both fsp6 and fsp2 are much more immunogenic than fsp7

AMTTSSSQKNITPAILTCC (listed as Homo sapiens) [p537, prior art peptide of mutTGFβR2]
immunogenicity / T-cell responses [1]: not immunogenic

SLVRLSSCVPVALMSAMTTSSSQ (listed as Homo sapiens) [p538, prior art peptide of mutTGFβR2]
patients recognizing the peptide ([1]; patients having spontaneous MSI+ colon cancer): two of three | patients recognizing the peptide ([1]; patients with HNPCC): all three | immunogenicity / T-cell responses [1]: highly immunogenic

KCIMKEKKSLVRLSSCVPVALMSA (listed as Homo sapiens) [fsp1, peptide of −1a frameshifted TGFβR2]
relative immunogenicity [4]: more immunogenic than peptides which do not comprise amino acids from the wild-type sequence of TGFβR2 | T cell proliferation (stimulation index, SI): immunogenicity [4]: stimulated T-cells induced from PMBCs

KCIMKEKKSLVRLSSCV (listed as Homo sapiens) [fsp6, peptide of −1a frameshifted TGFβR2]
T-cell activation (SI) ([5]; day 14): capable of activating T-cells | relative immunogenicity [5]: less immunogenic than fsp2

PKCIMKEKKKSLVRLSSCV (listed as Homo sapiens) [p541, prior art peptide of mutTGFβR2]
immunogenicity / T-cell responses [1]: able to induce T-cell responses in some patients | immunogenicity / T-cell responses ([1]; listed as p4541): immunogenic

SPKCIMKEKKSLVRLSSCVPVA (listed as Homo sapiens) [P540, prior art peptide of mutTGFβR2]
immunogenicity / T-cell responses [1]: able to induce T-cell responses in some patients; also recorded: immunogenic

KGIMKEKKSLVRLSSCVPVALMSA (not fully specified) [fsp2, modified peptide of −1a frameshifted TGFβR2]
relative immunogenicity [5]: much more immunogenic than fsp7 | T-cell response [3]: able to induce a T-cell response | relative immunogenicity [4]: more immunogenic than peptides which do not comprise amino acids from the wild-type sequence of TGFβR2 | T cell proliferation (stimulation index, SI): immunogenicity [4]: immunogenic and can activate T-cells
